Data on eleven compounds can be found in patent EP4711369A1, “1H-[1,2,3]TRIAZOLO[4,5-H]QUINAZOLINE COMPOUNDS AS PROTEIN KINASE INHIBITORS” (Chengdu Cynogen Bio-Pharmaceutical Technology Co., Ltd., priority 2023, dated 2024).

Test [1] deals with Human ovarian cancer OVCAR3 cells. As to the kind of experiment: Assay of cell proliferation (CellTiter-Glo). To be noted: Homo sapiens, OVCAR-3, 144 h, 6 days, read-out: OVCAR3 IC50 of cell proliferation inhibitory activity. Type of test: cell-based. The procedure: (§1) Human ovarian cancer OVCAR3 cells were inoculated at 2000 cells/well in a 96-well plate and cultured in RPMI 1640 medium containing 20% FBS at 37 °C and 5% CO2 overnight in an incubator. The next day, the compounds were subjected to a three-fold gradient dilution in DMSO from a peak concentration of 2 mM to give nine concentrations. Then, the compounds were diluted 3:200 in growth medium, and finally diluted 1:3 in the cell culture supernatant to give a culture supernatant containing 0.5% DMSO, with the compounds treatment concentrations ranging from 10 µM to 0.1 nM. The cells and the compounds were incubated at 37 °C and 5% CO2 for 6 days. Then, cell proliferation assay was performed using the CellTiter-Glo (manufacturer: Promega, Cat. No. G9242), and luminescence signals were read using a multifunctional microplate reader (model: Synergy H1, manufacturer: BiotTek). IC50 values were calculated by fitting of the concentration-response curves with a four-parameter analysis method using GraphPad Prism software.
For orientation: Cellular ATP, detected with luciferase, serves as a proxy for viable cell number.

The subject of test [2] is human breast cancer HCC1806 cells. The test can be described thus: Assay of cell proliferation (CellTiter-Glo). Type of test: cell-based. The conditions noted are these: Homo sapiens, 144 h, 6 days, read-out: HCC1806 IC50 of cell proliferation inhibitory activity. The procedure: as §1
(§2) The cell proliferation assays of human colon cancer HCT-116 cells, human breast cancer MCF-7 cells, human breast cancer HCC1806 cells, human acute myeloid leukemia MV-4-11 cells, and human gastric cancer MKN1 cells were performed according to the same method, with different inoculation densities set according to different cell growth characteristics.

For a further test, the target named is CDK2/cyclin E (Homo sapiens, UniProt P24941). As to the kind of experiment: Assay of kinase activity (ADP-Glo). Type of test: biochemical. To be noted: kinase inhibitory activity, read-out: CDK2/E1 IC50. The method, then: (§3) CDK/cyclin catalyzes the phosphorylation of a substrate, which concomitantly consumes ATP and produces ADP. The inhibition rate (%) in the presence of a small molecule inhibitor was assessed by measuring the amount of ADP generated in the reaction. The assay compounds were thoroughly mixed by vortexing and then diluted in DMSO to 100× the assay concentration. […] A 2× kinase solution was prepared using a 1× kinase reaction buffer (50 mM Hepes, 10 mM MgCl2, 0.01% Brij35, 2 mM DTT). 2 µL of the kinase solution was transferred to the 384-well assay plate, and the plate was centrifuged at 1000 rpm for 60 seconds in a microplate centrifuge. The plate was incubated at 25 °C in a biochemical incubator for 10 minutes. A 2x mixture of substrate and ATP was prepared in the kinase reaction buffer. Then, 2 µL of the mixture of substrate and ATP was added to the 384-well assay plate. The plate was centrifuged at 1000 rpm for 60 seconds in a microplate centrifuge, and incubated at 25 °C in a biochemical incubator for 60 minutes. 4 µL of ADP-Glo Reagent (Cat. No. V9103, manufacturer: Promega) incubated at 25 °C in a biochemical incubator was added to each well of the 384-well assay plate. The plate was centrifuged at 1000 rpm for 60 seconds in a microplate centrifuge, and incubated at 25 °C in a biochemical incubator for 40 minutes. 8 µL of Detection Reagent incubated at 25 °C in a biochemical incubator was added to each well of the 384-well assay plate. The plate was centrifuged at 1000 rpm for 60 seconds in a microplate centrifuge, and incubated at 25 °C in a biochemical incubator for 40 minutes. Finally, luminescence signals were read using a multifunctional microplate reader (model: PHERAstar FSX, manufacturer: BMG). IC50 values were calculated by nonlinear fitting of the concentration-response curves using GraphPad Prism software.
(In ADP-Glo the light output rises with the ADP produced.)

The target in the next test is CDK4/cyclin D1 (Homo sapiens, UniProt P11802). As to the kind of experiment: Assay of kinase activity (ADP-Glo). To be noted: kinase inhibitory activity. The format is biochemical. The procedure: as §3
The next test concerns the target CDK9/cyclin T1 (Homo sapiens, UniProt P50750). The test can be described thus: Assay of kinase activity (ADP-Glo). The format is biochemical. To be noted: kinase inhibitory activity. The procedure:
(§4) CDK/cyclin catalyzes the phosphorylation of a substrate, which concomitantly consumes ATP and produces ADP. The inhibition rate (%) in the presence of a small molecule inhibitor was assessed by measuring the amount of ADP generated in the reaction. The assay compounds were thoroughly mixed by vortexing and then diluted in DMSO to 100× the assay concentration. 40 nL of a compound was transferred to a 384-well assay plate using a nanoliter pipetting system (ECHO® 655 SYSTEM). A 2× kinase solution was prepared using a 1× kinase reaction buffer (50 mM Hepes, 10 mM MgCl2, 0.01% Brij35, 2 mM DTT). 2 µL of the kinase solution was transferred to the 384-well assay plate, and the plate was centrifuged at 1000 rpm for 60 seconds in a microplate centrifuge. The plate was incubated at 25 °C in a biochemical incubator for 10 minutes. A 2x mixture of substrate and ATP was prepared in the kinase reaction buffer. Then, 2 µL of the mixture of substrate and ATP was added to the 384-well assay plate. The plate was centrifuged at 1000 rpm for 60 seconds in a microplate centrifuge, and incubated at 25 °C in a biochemical incubator for 60 minutes. 4 µL of ADP-Glo Reagent (Cat. No. V9103, manufacturer: Promega) incubated at 25 °C in a biochemical incubator was added to each well of the 384-well assay plate. The plate was centrifuged at 1000 rpm for 60 seconds in a microplate centrifuge, and incubated at 25 °C in a biochemical incubator for 40 minutes. 8 µL of Detection Reagent incubated at 25 °C in a biochemical incubator was added to each well of the 384-well assay plate. The plate was centrifuged at 1000 rpm for 60 seconds in a microplate centrifuge, and incubated at 25 °C in a biochemical incubator for 40 minutes. Finally, luminescence signals were read using a multifunctional microplate reader (model: PHERAstar FSX, manufacturer: BMG). IC50 values were calculated by nonlinear fitting of the concentration-response curves using GraphPad Prism software.

For a further test, the target named is CDK6/cyclin D3 (Homo sapiens, UniProt Q00534). The test can be described thus: Assay of kinase activity (ADP-Glo). The format is biochemical. To be noted: kinase inhibitory activity. The procedure: as §4
The subject of test [3] is human gastric cancer MKN1 cells. The test can be described thus: Assay of cell proliferation (CellTiter-Glo). Type of test: cell-based. The conditions noted are these: Homo sapiens, MKN-1, 144 h; MNK1, 6 days; read-out: MKN1 IC50 of cell proliferation inhibitory activity. The procedure: as §1, §2

Sequence of CDK9/cyclin T1 (P50750 whole entry, species assumed): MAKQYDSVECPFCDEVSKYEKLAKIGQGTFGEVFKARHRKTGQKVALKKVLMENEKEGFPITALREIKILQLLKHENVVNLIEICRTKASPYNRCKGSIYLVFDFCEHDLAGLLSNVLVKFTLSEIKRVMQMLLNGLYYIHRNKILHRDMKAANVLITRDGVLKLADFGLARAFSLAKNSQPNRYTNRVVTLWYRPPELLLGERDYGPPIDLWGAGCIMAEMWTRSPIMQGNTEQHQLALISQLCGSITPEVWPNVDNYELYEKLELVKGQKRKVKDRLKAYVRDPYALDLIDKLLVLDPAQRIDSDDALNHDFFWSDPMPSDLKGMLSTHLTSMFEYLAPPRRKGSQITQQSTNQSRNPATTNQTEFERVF
Sequence of CDK9/cyclin T1 (O60563 whole entry partner, species assumed): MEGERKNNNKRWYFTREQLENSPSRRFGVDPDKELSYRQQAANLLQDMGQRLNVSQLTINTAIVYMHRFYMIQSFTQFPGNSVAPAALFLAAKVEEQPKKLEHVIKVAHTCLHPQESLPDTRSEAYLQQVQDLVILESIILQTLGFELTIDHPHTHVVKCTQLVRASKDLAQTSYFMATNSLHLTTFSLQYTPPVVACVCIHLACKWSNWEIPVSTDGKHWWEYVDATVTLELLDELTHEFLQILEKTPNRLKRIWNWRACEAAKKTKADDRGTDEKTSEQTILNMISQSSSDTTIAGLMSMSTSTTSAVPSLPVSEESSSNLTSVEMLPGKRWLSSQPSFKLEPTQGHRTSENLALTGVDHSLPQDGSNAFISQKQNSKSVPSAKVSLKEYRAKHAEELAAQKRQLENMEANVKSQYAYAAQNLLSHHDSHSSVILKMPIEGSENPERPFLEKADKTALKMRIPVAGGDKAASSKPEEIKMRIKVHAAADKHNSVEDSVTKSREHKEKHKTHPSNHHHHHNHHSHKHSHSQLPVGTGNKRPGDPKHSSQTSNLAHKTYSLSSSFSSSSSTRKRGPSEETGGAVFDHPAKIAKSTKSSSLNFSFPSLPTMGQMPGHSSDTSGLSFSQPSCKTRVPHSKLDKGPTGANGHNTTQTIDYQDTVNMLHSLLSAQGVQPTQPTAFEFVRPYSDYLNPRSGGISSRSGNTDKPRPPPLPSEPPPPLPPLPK
Sequence of CDK4/cyclin D1 (P11802 whole entry, species assumed): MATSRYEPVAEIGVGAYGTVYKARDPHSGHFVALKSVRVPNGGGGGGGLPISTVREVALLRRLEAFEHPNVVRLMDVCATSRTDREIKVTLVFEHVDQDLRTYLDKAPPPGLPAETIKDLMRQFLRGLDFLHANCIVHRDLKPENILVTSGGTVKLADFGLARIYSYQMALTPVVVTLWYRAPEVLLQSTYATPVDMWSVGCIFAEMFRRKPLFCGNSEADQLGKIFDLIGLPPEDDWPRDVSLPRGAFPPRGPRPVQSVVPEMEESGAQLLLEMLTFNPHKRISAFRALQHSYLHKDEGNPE
Sequence of CDK4/cyclin D1 (P24385 whole entry partner, species assumed): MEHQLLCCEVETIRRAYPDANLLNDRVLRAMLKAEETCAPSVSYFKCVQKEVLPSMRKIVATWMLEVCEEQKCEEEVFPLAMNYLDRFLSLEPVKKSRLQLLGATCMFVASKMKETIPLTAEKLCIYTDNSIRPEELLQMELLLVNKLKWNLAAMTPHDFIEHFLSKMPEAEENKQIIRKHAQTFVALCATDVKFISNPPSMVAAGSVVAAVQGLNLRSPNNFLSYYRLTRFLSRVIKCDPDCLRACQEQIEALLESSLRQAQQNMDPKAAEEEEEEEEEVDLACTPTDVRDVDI
Sequence of CDK6/cyclin D3 (Q00534 whole entry, species assumed): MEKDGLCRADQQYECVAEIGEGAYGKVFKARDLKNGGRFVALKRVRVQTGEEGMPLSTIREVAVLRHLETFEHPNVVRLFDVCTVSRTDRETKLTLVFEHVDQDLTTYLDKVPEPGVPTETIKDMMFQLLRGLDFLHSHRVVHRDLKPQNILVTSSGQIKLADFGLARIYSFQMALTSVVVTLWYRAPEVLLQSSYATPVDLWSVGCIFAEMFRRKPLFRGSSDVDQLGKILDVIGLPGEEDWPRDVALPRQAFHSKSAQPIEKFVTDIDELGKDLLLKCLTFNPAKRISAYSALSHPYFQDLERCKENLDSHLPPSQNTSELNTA
Sequence of CDK6/cyclin D3 (P30281 whole entry partner, species assumed): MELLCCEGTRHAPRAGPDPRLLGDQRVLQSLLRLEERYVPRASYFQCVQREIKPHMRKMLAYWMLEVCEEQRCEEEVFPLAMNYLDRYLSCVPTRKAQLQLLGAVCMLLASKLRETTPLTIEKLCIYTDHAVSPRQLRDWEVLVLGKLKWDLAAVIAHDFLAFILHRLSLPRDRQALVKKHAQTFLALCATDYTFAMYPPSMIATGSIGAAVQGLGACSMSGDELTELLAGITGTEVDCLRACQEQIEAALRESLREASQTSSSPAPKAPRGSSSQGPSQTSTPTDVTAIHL

On to `CC(C)n1nnc2ccc3cnc(Nc4ccc(C(=O)N5CCC(N(C)C)CC5)cc4)nc3c21` [Example I-15, (4-(Dimethylamino)piperidin-1-yl)(4-((1-isopropyl-1H-[1,2,3]triazolo[4,5-H]quinazolin-8-yl)amino)phenyl)metha none], for which the IC50 in test [1] came out at 264 nM; in test [2], 177 nM; on CDK2/cyclin E, 1 nM; at CDK4/cyclin D1 it was 2 nM; on CDK9/cyclin T1, 44 nM; against CDK6/cyclin D3 it was 94 nM.
`CC(C)n1nnc2ccc3cnc(Nc4ccc(C(=O)N5CCN(C)CC5)c(F)c4)nc3c21` [Example I-26, (2-Fluoro-4-((1-isopropyl-1H-[1,2,3]triazolo[4,5-H]quinazolin-8-yl)amino)phenyl)(4-methylpiperazin-1-yl)methanone]: the IC50 is 45 nM in test [1]; 41 nM in test [3]; 436 nM in test [2]; 1 nM on CDK2/cyclin E; 4 nM against CDK4/cyclin D1; 16 nM against CDK9/cyclin T1. Further, at CDK6/cyclin D3, the IC50 came to 19 nM.
As for `CCN1CCN(C(=O)c2ccc(Nc3ncc4ccc5nnn(C(C)C)c5c4n3)cc2)CC1` [Example I-29, (4-Ethylpiperazin-1-yl)(4-((1-isopropyl-1H-[1,2,3]triazolo[4,5-H]quinazolin-8-yl)amino)phenyl)metha none], the IC50 amounted to 40 nM in test [1]; 15 nM in test [3]; 207 nM in test [2]; 1 nM at CDK2/cyclin E; 2 nM against CDK4/cyclin D1; 6 nM against CDK9/cyclin T1. The compound also had an IC50 on CDK6/cyclin D3 of 12 nM.
As to `CC(C)N1CCN(C(=O)c2ccc(Nc3ncc4ccc5nnn(C(C)C)c5c4n3)cc2)CC1` [Example I-30, (4-Isopropylpiperazin-1-yl)(4-((1-isopropyl-1H-[1,2,3]triazolo[4,5-H]quinazolin-8-yl)amino)phenyl)metha none], the IC50 was determined as 19 nM in test [1]; 20 nM in test [3]; 151 nM in test [2]; 1 nM on CDK2/cyclin E; 2 nM against CDK4/cyclin D1; 44 nM on CDK9/cyclin T1. This compound had an IC50 on CDK6/cyclin D3 of 94 nM.
Take `CC(C)n1nnc2ccc3cnc(Nc4ccc(C(=O)N5CCN(CCCO)CC5)cc4)nc3c21` [Example I-31, (4-(3-Hydroxypropyl)piperazin-1-yl)(4-((1-isopropyl-1H-[1,2,3]triazolo[4,5-H]quinazolin-8-yl)amino)phenyl)metha none]: the IC50 in test [1] turned out to be 193 nM; in test [3], 67 nM; in test [2], 273 nM; on CDK2/cyclin E, 7 nM; against CDK4/cyclin D1, 8 nM; against CDK9/cyclin T1, 380 nM. Further, the IC50 against CDK6/cyclin D3 amounted to 89 nM.
Regarding `N[C@H]1CCN(C(=O)c2ccc(Nc3ncc4ccc5nnn(C6CCCC6)c5c4n3)cc2)C1` [Example I-38, (S)-(3-Aminopyrrolidin-1-yl)(4-((1-cyclopentyl-1H-[1,2,3]triazolo[4,5-H]quinazolin-8-yl)amino)phenyl)methanone], the IC50 in test [1] was 8 nM; in test [3], 1 nM; in test [2], 13 nM; on CDK2/cyclin E, 0.05 nM; against CDK4/cyclin D1 it was 0.5 nM; against CDK9/cyclin T1 it was 4 nM. The compound further returned an IC50 on CDK6/cyclin D3 of 3 nM.
With `CN[C@H]1CCN(C(=O)c2ccc(Nc3ncc4ccc5nnn(C6CCCC6)c5c4n3)cc2)C1` [Example I-39, (S)-(4-((1-cyclopentyl-1H-[1,2,3]triazolo[4,5-H]quinazolin-8-yl)amino)phenyl)(3-(methylamino)pyrrolidin-1-yl)methanone], the IC50 stood at 5 nM in test [1]; 1 nM in test [3]; 7 nM in test [2]; 0.07 nM at CDK2/cyclin E; 0.7 nM at CDK4/cyclin D1; 2 nM at CDK9/cyclin T1. Moreover, the IC50 against CDK6/cyclin D3 came out at 4 nM.
In the case of `C[C@@H](CO)n1nnc2ccc3cnc(Nc4ccc(C(=O)N5CCNCC5)cc4)nc3c21` [Example I-48, (S)-(4-((1-(1-Hydroxypropan-2-yl)-1H-[1,2,3]triazolo[4,5-H]quinazolin-8-yl)amino)phenyl)(piperazin-1-yl)methanone], the IC50 in test [2] worked out at 5500 nM; at CDK2/cyclin E it was 3 nM; against CDK4/cyclin D1 it was 7 nM; against CDK9/cyclin T1 it was 344 nM; against CDK6/cyclin D3, 205 nM.
Consider `C[C@@H](CO)n1nnc2ccc3cnc(Nc4ccc(C(=O)N5CCOCC5)cc4)nc3c21` [Example I-49, (S)-(4-((1-(1-Hydroxypropan-2-yl)-1H-[1,2,3]triazolo[4,5-H]quinazolin-8-yl)amino)phenyl)(morpholino)methanone], for which the IC50 stood at 1370 nM in test [1]; 2160 nM in test [2]; 3 nM on CDK2/cyclin E; 21 nM on CDK4/cyclin D1; 390 nM at CDK9/cyclin T1; 401 nM against CDK6/cyclin D3.
Turning to `CC(C)(O)Cn1nnc2ccc3cnc(Nc4ccc(C(=O)N5CCNCC5)cc4)nc3c21` [Example I-52, (4-((1-(2-Hydroxy-2-methylpropyl)-1H-[1,2,3]triazolo[4,5-H]quinazolin-8-yl)amino)phenyl)(piperazin-1-yl)methanone], the IC50 in test [2] was 5090 nM; at CDK2/cyclin E, 4 nM; against CDK4/cyclin D1, 10 nM; on CDK9/cyclin T1, 419 nM; against CDK6/cyclin D3 it was 127 nM.
Turning to `CC(C)(O)Cn1nnc2ccc3cnc(Nc4ccc(C(=O)N5CCOCC5)cc4)nc3c21` [Example I-53, (4-((1-(2-Hydroxy-2-methylpropyl)-1H-[1,2,3]triazolo[4,5-H]quinazolin-8-yl)amino)phenyl)(morpholino)methanone], the IC50 in test [1] came out at 1720 nM; in test [2], 3170 nM; on CDK2/cyclin E it was 8 nM; on CDK4/cyclin D1, 49 nM; on CDK9/cyclin T1, 995 nM; against CDK6/cyclin D3, 803 nM.
